According to patent publication US8586505B2 (SDS Biotech K. K., priority 2009, dated 2013):

Legend:
Sphaerotheca fuliginea = test: Test of examining control effect on Sphaerotheca fuliginea (potted cucumber plants); format: in vivo; conditions: Podosphaera fuliginea, 336 h; 10% wettable powder adjusted to 125 ppm, 15 ml/pot sprayed on potted cucumber plants one day before spray inoculation; assessed after 14 days in greenhouse; read-out: Determination of control effect (preventive value) on Sphaerotheca fuliginea
How it was run: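 Cucumber plants (Sagamihanjiro, 2nd leaf stage) sprayed with 125 ppm compound (from 10% wettable powder), inoculated one day later with S. fuliginea conidia (1.0×10^5 cells/ml); lesion area scored after 14 days in greenhouse. Preventive value vs untreated; ≥60% high, <60% low control.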

Phytophthora infestans = test: whole plant or invertebrate; format: in vivo; conditions: in Solanum lycopersicum, 96 h, read-out: Determination of control effect (preventive value)
[1] = test system: Pseudoperonospora cubensis; test: Test of examining control effect on Pseudoperonospora cubensis (potted cucumber plants); format: in vivo; conditions: 96 h, 10% wettable powder adjusted to 125 ppm, 15 ml/pot sprayed on potted cucumber plants one day before spray inoculation, assessed after 1 day wet chamber and 3 days greenhouse, read-out: Determination of control effect (preventive value) on Pseudoperonospora cubensis
How it was run: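 Cucumber plants (Sagamihanjiro, 2.5-leaf stage) sprayed with 125 ppm compound solution from 10% wettable powder, 15 ml/pot. One day later, spray-inoculated with P. cubensis conidia (1.0×10^4 cells/ml), kept 1 day at 21° C wet, then 3 days in greenhouse. Preventive value derived from lesion area relative to untreated plants.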

Tetranychus urticae eggs = test: Test of examining effect on Tetranychus urticae eggs (ovicidal rate); format: in vivo; conditions: 144 h, 0.4 ml sprayed, unhatched eggs counted six days later, read-out: Determination (ovicidal rate)
Description: Thereafter, the released female adults were removed. […] Six days later, the number of unhatched eggs was counted, and an ovicidal rate was calculated.

Row | Compound | pest or weed control at 125 µg/mL (Sphaerotheca fuliginea) [%] | pest or weed control at 125 ppm (Phytophthora infestans) [%] | pest or weed control at 125 µg/mL [1] [%] | pest or weed control at 250 ppm (Tetranychus urticae eggs) [%] | melting point [°C]
1 | CC(CC#Cc1ccc(Cl)cc1C(F)(F)F)Nc1ncnc2sccc12 (stereo not drawn) [compound 258] | 60 to 100 | 60 to 100 | 60 to 100 | 60 to 80 | –
2 | Cc1cc(F)ccc1C#CCC(C)Nc1ncnc2sccc12 (stereo not drawn) [compound 246] | 60 to 100 | 60 to 100 | 60 to 100 | 80 to 95 | –
3 | CC(CC#Cc1ccc(Cl)cc1C(F)(F)F)Nc1ncnc2c(F)cccc12 (stereo not drawn) [compound 348] | 60 to 100 | 0 to 60 | 60 to 100 | 80 to 95 | –
4 | Cc1ncnc(NC(C)CC#Cc2ccc(Cl)cc2C(F)(F)F)c1Cl (stereo not drawn) [compound 385] | 60 to 100 | 0 to 60 | 60 to 100 | ≥ 95 | –
5 | C(#Cc1ccc(C2CCCCC2)cc1)CCNc1ncnc2ccccc12 [compound 109] | 60 to 100 | 0 to 60 | 60 to 100 | 80 to 95 | –
6 | C(#Cc1ccccc1)CCNc1ncnc2sccc12 [compound 10, 4-(4-Phenyl-3-butynylamino)thieno[2,3-d]pyrimidine] | 60 to 100 | 60 to 100 | 60 to 100 | 60 to 80 | –
7 | CC(C)(C)c1ccc(C#CCCNc2ncnc3sccc23)cc1 [compound 20] | 60 to 100 | 0 to 60 | 60 to 100 | 60 to 80 | –
8 | CC(CC#Cc1ccc(S(F)(F)(F)(F)F)cc1)Nc1ncnc2sccc12 (stereo not drawn) [compound 238] | 60 to 100 | 60 to 100 | 60 to 100 | ≥ 95 | –
9 | CC(CC#Cc1ccccc1C(F)(F)F)Nc1ncnc2sccc12 (stereo not drawn) [compound 233] | 60 to 100 | 60 to 100 | 60 to 100 | 80 to 95 | –
10 | CC(CC#Cc1ccc(Cl)cc1C(F)(F)F)Nc1ncnc2ccccc12 (stereo not drawn) [compound 285] | 60 to 100 | 60 to 100 | 60 to 100 | ≥ 95 | –
11 | CC(CC#Cc1ccc(Cl)cc1C(F)(F)F)Nc1ncnc2cccc(Cl)c12 (stereo not drawn) [compound 350] | 60 to 100 | 0 to 60 | 60 to 100 | ≥ 95 | –
12 | CC(CC#Cc1ccc(Cl)cc1C(F)(F)F)Nc1ncnc2ncccc12 (stereo not drawn) [compound 384] | 60 to 100 | 0 to 60 | 60 to 100 | ≥ 95 | –
13 | CC(CC#Cc1ccc(C(F)(F)F)cc1)Nc1ncnc2sccc12 (stereo not drawn) [compound 235] | 60 to 100 | 60 to 100 | 60 to 100 | ≥ 95 | –
14 | FC(F)=Cc1ccc(C#CCCNc2ncnc3ccccc23)cc1 [compound 113] | 60 to 100 | 0 to 60 | 60 to 100 | ≥ 95 | –
15 | CC(CC#Cc1ccc(F)cc1C(F)(F)F)Nc1ncnc2ccccc12 (stereo not drawn) [compound 286] | 60 to 100 | 60 to 100 | 60 to 100 | 80 to 95 | –
16 | C=C(C#CCCNc1ncnc2ccccc12)c1ccccc1 [compound 95] | 0 to 60 | 0 to 60 | 60 to 100 | 60 to 80 | –
17 | O=[N+]([O-])c1ccccc1C#CCCNc1ncnc2sccc12 [compound 38] | – | 60 to 100 | 60 to 100 | 60 to 80 | –

Row | Compound | pest or weed control at 125 µg/mL (Sphaerotheca fuliginea) [%] | pest or weed control at 125 ppm (Phytophthora infestans) [%] | pest or weed control at 125 µg/mL [1] [%] | pest or weed control at 250 ppm (Tetranychus urticae eggs) [%] | melting point [°C]
18 | CCOc1ccccc1C#CCCNc1ncnc2ccccc12 [compound 118] | 60 to 100 | 60 to 100 | 60 to 100 | – | 119 to 120
19 | CC(CC#Cc1c(Cl)cc(C(F)(F)F)cc1Cl)Nc1ncnc2sccc12 (stereo not drawn) [compound 262] | 60 to 100 | – | 60 to 100 | ≥ 95 | –
20 | FC(F)(F)c1ccccc1C#CCCNc1ncnc2cc(Cl)ccc12 [compound 308] | 60 to 100 | 0 to 60 | 60 to 100 | – | 153 to 154
21 | FC(F)(F)c1ccccc1C#CCC(Nc1ncnc2ccccc12)c1ccccc1 (stereo not drawn) [compound 302] | 0 to 60 | 0 to 60 | 0 to 60 | – | 150 to 152
22 | C(#Cc1ccccc1)CCNc1ncnc2ccccc12 [compound 96] | 60 to 100 | 60 to 100 | 60 to 100 | – | 120 to 122
23 | CCc1ccc(C#CCC(C)Nc2ncnc3sccc23)cc1 (stereo not drawn) [compound 240] | – | 60 to 100 | 60 to 100 | 60 to 80 | –
24 | OCc1cc(C#CCCNc2ncnc3ccccc23)co1 [compound 209] | 0 to 60 | 0 to 60 | 60 to 100 | – | 135 to 147
25 | FC(F)(F)c1ccc(Oc2nc(C#CCCNc3ncnc4ccccc34)cs2)cc1 [compound 220] | 60 to 100 | 0 to 60 | 0 to 60 | – | 137 to 139
26 | OCc1cccc(C#CCCNc2ncnc3ccccc23)c1 [compound 131] | 60 to 100 | 60 to 100 | 60 to 100 | – | 113 to 115
27 | COCc1ccccc1C#CCCNc1ncnc2c(Cl)cc(Cl)cc12 [compound 338] | 0 to 60 | 0 to 60 | 60 to 100 | – | 161 to 162
28 | Clc1ncccc1C#CCCNc1ncnc2ccccc12 [compound 195] | 60 to 100 | 60 to 100 | 60 to 100 | – | 168 to 170
29 | OCc1ccc(C#CCCNc2ncnc3ccccc23)cn1 [compound 202] | 0 to 60 | 0 to 60 | 60 to 100 | – | 183 to 185
30 | N#Cc1cccc(Oc2nc(C#CCCNc3ncnc4ccccc34)cs2)c1 [compound 222] | 60 to 100 | 0 to 60 | 60 to 100 | – | 137 to 139
31 | N#Cc1c(F)cccc1C#CCCNc1ncnc2ccccc12 [compound 165] | 60 to 100 | 0 to 60 | 60 to 100 | – | 163 to 164
32 | C(#Cc1ccc2ccccc2c1)CCNc1ncnc2ccccc12 [compound 183] | 60 to 100 | 60 to 100 | 60 to 100 | – | 159 to 160
33 | Clc1ccc(Cl)c(C#CCCNc2ncnc3ccccc23)c1 [compound 173] | 60 to 100 | 0 to 60 | 60 to 100 | – | 176 to 177
